Test results taken from patent publication US20230312587A1, “PTERIDINONE COMPOUNDS AND USES THEREOF” (Vertex Pharmaceutical Incorporated, priority 2018, published 2023).

system: β-catenin-TCF-mediated reporter transcription activity in Colo 205 cells; test: Colo 205 reporter assay (TCF/LEF luciferase); type: cell-based; conditions: Homo sapiens, COLO 205, 5 h, Colo 205 TCF/LEF luciferase reporter, five hours after addition of compound; read-out: TCF reporter Colo205 IC50
Method in brief: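 Luciferase signal from a TCF/LEF-driven reporter, stably integrated in Colo 205 colon cancer cells, was measured 5 h after compound addition.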

Question: For `Cc1nc(NCc2cnn(Cc3cc(C(F)(F)F)n(C)n3)c2)nc2c1NC(=O)[C@H](C)N2C` [Compound 190, (7S)-4,7,8-trimethyl-2-(((1-((1-methyl-5-(trifluoromethyl)-1H-pyrazol-3-yl)methyl)-1H-pyrazol-4-yl)methyl)amino)-7,8-dihydropteridin-6(5H)-one], which IC50 is on record?
Answer: 0.3 to 1 µM

Question: For `Cc1nc(CC(=O)N2CC(Nc3nc(C)c4c(n3)N(C)[C@@H](C(C)C)C(=O)N4)C2)c(C)s1` [Compound 628, (S)-2-((1-(2-(2,5-dimethylthiazol-4-yl)acetyl)azetidin-3-yl)amino)-7-isopropyl-4,8-dimethyl-7,8-dihydropteridin-6(5H)-one], which IC50 is on record?
Answer: ≥ 5 µM

Question: With `Cc1nc(NCc2cnn(Cc3cncc(F)c3)c2)nc2c1NC(=O)[C@H](C)N2C` [Compound 208, (7S)-2-(((1-((5-fluoropyridin-3-yl)methyl)-1H-pyrazol-4-yl)methyl)amino)-4,7,8-trimethyl-7,8-dihydropteridin-6(5H)-one] as the molecule, how does the IC50 read?
Answer: < 0.3 µM

Question: How did the IC50 turn out when `Cc1nc(NC2CC2COc2ccccc2)nc2c1NC(=O)[C@H](C)N2C` (stereo partly drawn) [Compound 278, (7S)-4,7,8-trimethyl-2-((2-(phenoxymethyl)cyclopropyl)-amino)-7,8-dihydropteridin-6(5H)-one] was run?
Answer: 1 to 5 µM

Question: How did the IC50 turn out when `Cc1nc(N[C@H]2C[C@@H](NC(=O)N3CCC(F)(F)CC3)C2)nc2c1NC(=O)[C@H](C(C)C)N2C` [Compound 525, 4,4-difluoro-N-(cis-3-(((S)-7-isopropyl-4,8-dimethyl-6-oxo-5,6,7,8-tetrahydropteridin-2-yl)amino)cyclobutyl)piperidine-1-carboxamide] was run?
Answer: ≥ 5 µM

Question: How did the IC50 turn out when `Cc1nc(N[C@H]2C[C@H](NC(=O)Nc3ccc(F)cc3)C2)nc2c1NC(=O)[C@H](C)N2C` [Compound 459, 1-(4-fluorophenyl)-3-(trans-3-(((S)-4,7,8-trimethyl-6-oxo-5,6,7,8-tetrahydropteridin-2-yl)amino)cyclobutyl)urea] was run?
Answer: ≥ 5 µM

Question: `C[C@H]1C(=O)Nc2cnc(N[C@H]3C[C@H](Oc4cc(F)c(F)c(F)c4)C3)nc2N1C` [Compound 249, (7S)-7,8-dimethyl-2-((trans-3-(3,4,5-trifluorophenoxy)cyclobutyl)amino)-7,8-dihydropteridin-6(5H)-one] was tested. Which IC50 did it give?
Answer: < 0.3 µM

Question: `Cc1nc(NC2CN(C(=O)c3cccc(C(F)(F)F)c3)C2)nc2c1NC(=O)[C@H](C(C)C)N2C` [Compound 635, (S)-7-isopropyl-4,8-dimethyl-2-((1-(3-(trifluoromethyl)benzoyl)azetidin-3-yl)amino)-7,8-dihydropteridin-6(5H)-one] was tested. Which IC50 did it give?
Answer: < 0.3 µM

Question: `CO[C@H](C)[C@H]1C(=O)Nc2c(C)nc(N[C@H]3C[C@H](Oc4cc(F)c(F)c(F)c4)C3)nc2N1C` [Compound 599, (S)-7-((R)—1-methoxyethyl)-4,8-dimethyl-2-((trans-3-(3,4,5-trifluorophenoxy)cyclobutyl)amino)-7,8-dihydropteridin-6(5H)-one] was tested. Which IC50 did it give?
Answer: < 0.3 µM

Question: `Cc1nc(NCc2cnn(C[C@@H](O)c3ccc(F)cc3)c2)nc2c1NC(=O)[C@H](C)N2C` [Compound 131, (7S)-2-[[1-[(2S)-2-(4-fluorophenyl)-2-hydroxy-ethyl]pyrazol-4-yl]methylamino]-4,7,8-trimethyl-5,7-dihydropteridin-6-one] was tested. Which IC50 did it give?
Answer: 1 to 5 µM

Question: With `Cc1nc(NC2CN(C(=O)c3cnccn3)C2)nc2c1NC(=O)[C@H](C(C)C)N2C` [Compound 631, (S)-7-isopropyl-4,8-dimethyl-2-((1-(pyrazine-2-carbonyl)azetidin-3-yl)amino)-7,8-dihydropteridin-6(5H)-one] as the molecule, how does the IC50 read?
Answer: ≥ 5 µM

Question: With `Cc1nc(N[C@H]2C[C@@H](N(C)c3cnc(C(F)(F)F)cn3)C2)nc2c1NC(=O)[C@H](C)N2C` [Compound 653, (S)-4,7,8-trimethyl-2-((cis-3-(methyl(5-(trifluoromethyl)pyrazin-2-yl)amino)cyclobutyl)amino)-7,8-dihydropteridin-6(5H)-one] as the molecule, how does the IC50 read?
Answer: ≥ 5 µM

same assay, conditions: Homo sapiens, COLO 205, 5 h, R-isomer at C2 (corresponding to C2 S-isomer); Colo 205 TCF/LEF luciferase reporter, 5 h; read-out: TCF reporter Colo205 IC50

Question: Which IC50 does the source give for `C[C@@H]1C(=O)Nc2cnc(NCc3cnn(Cc4cc(F)c(F)c(F)c4)c3)nc2N1C` [Compound I-896] here?
Answer: 0.3 to 1 µM
